We go through 11 compounds from PubChem BioAssay (NCI).

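Grown in 96-well plates, cells were treated for 48 hours with each compound at five concentrations. Insufficient inhibition: endpoint recorded as highest concentration tested. The concentration for 50% growth inhibition is given as GI50. At the TGI there is no net growth.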

Test systems include ACHN renal; HCT-15 colon; K-562 leukemia; MCF7 breast; MDA-MB-435; NCI-H460 lung; OVCAR-8 ovarian; SK-MEL-2 melanoma; UACC-257 melanoma; UACC-62 melanoma.
What all share (experiment): inhibition of tumour cell growth, NCI panel, 48 h

For the compound `CC(C)(C)n1c(=O)n(C(=O)C(Cl)(Cl)Cl)n(C(=O)C(Cl)(Cl)Cl)c1=O`, the TGI in the experiment with ACHN renal, in the experiment with HCT-15 colon, with K-562 leukemia, in the experiment with MCF7 breast, with MDA-MB-435 and in the experiment with NCI-H460 lung was > 100 µM in each case. For the same compound, the TGI in the experiment on OVCAR-8 ovarian, with SK-MEL-2 melanoma, in the experiment on UACC-257 melanoma and with UACC-62 melanoma was > 100 µM in each case.

As to `Nc1ccccc1NC(=O)CCCCCCC(=O)Nc1ccc2c(c1)/C(=C/c1ccc[nH]1)C(=O)N2`, the GI50 in the experiment with ACHN renal was 15.1 µM; in the experiment on HCT-15 colon it was > 100 µM; in the experiment on K-562 leukemia, 8.75 µM; in the experiment with MCF7 breast, 3.6 µM; in the experiment on MDA-MB-435, 14.7 µM; in the experiment with NCI-H460 lung, 22.4 µM. Also, the GI50 was 5.59 µM in the experiment on OVCAR-8 ovarian, 5.73 µM in the experiment on SK-MEL-2 melanoma, > 100 µM in the experiment on UACC-257 melanoma and > 100 µM with UACC-62 melanoma. The TGI with ACHN renal, with HCT-15 colon, in the experiment with K-562 leukemia, in the experiment on MCF7 breast, in the experiment on MDA-MB-435 and in the experiment with NCI-H460 lung was > 100 µM throughout. Also, the TGI in the experiment on OVCAR-8 ovarian, with SK-MEL-2 melanoma, in the experiment with UACC-257 melanoma and in the experiment on UACC-62 melanoma was > 100 µM throughout.

`CCOC(=O)C1=C(C)C(C(=O)OC)/C(=C/c2cccc3cccnc23)C1=O` (stereo not given): the TGI with ACHN renal, in the experiment with HCT-15 colon, in the experiment on K-562 leukemia, with MCF7 breast, in the experiment on MDA-MB-435 and in the experiment with NCI-H460 lung was > 10 µM throughout. Also, the TGI with OVCAR-8 ovarian, in the experiment on SK-MEL-2 melanoma, with UACC-257 melanoma and with UACC-62 melanoma was > 10 µM each time.

As to `CCc1nn(S(=O)(=O)c2ccc(C)cc2)c2c1CS(=O)(=O)CC2`, the TGI in the experiment on ACHN renal, with HCT-15 colon, with K-562 leukemia, with MCF7 breast, in the experiment on MDA-MB-435 and in the experiment on NCI-H460 lung was > 100 µM in each case. In addition, the TGI in the experiment on OVCAR-8 ovarian, in the experiment with SK-MEL-2 melanoma, in the experiment with UACC-257 melanoma and with UACC-62 melanoma was > 100 µM each time.

As to `COc1ccc(-c2nc(-c3cc4ccccc4oc3=O)cs2)cc1`, the TGI in the experiment on ACHN renal, with HCT-15 colon, with K-562 leukemia, with MCF7 breast, in the experiment with MDA-MB-435 and in the experiment with NCI-H460 lung was > 100 µM each time. For the same compound, the TGI with OVCAR-8 ovarian was 56.3 µM; with SK-MEL-2 melanoma it was > 100 µM; in the experiment with UACC-257 melanoma, > 100 µM; in the experiment on UACC-62 melanoma it was > 100 µM.

For `COc1ccc2c(c1)nc1n2C(N)=Nc2ccccc2S1`, the TGI with ACHN renal is > 100 µM; with HCT-15 colon it was > 100 µM; with K-562 leukemia, > 57.8 µM; with MCF7 breast, > 100 µM; with MDA-MB-435 it was > 100 µM; with NCI-H460 lung it was > 100 µM. In addition, the TGI in the experiment with OVCAR-8 ovarian is > 82.1 µM; in the experiment on SK-MEL-2 melanoma, > 100 µM; in the experiment on UACC-257 melanoma it was > 100 µM; with UACC-62 melanoma it was > 74.4 µM.

In the case of `O=C(c1ccccc1)c1c(C(F)(F)F)n([O-])c2cc(Cl)c(Cl)cc2[n+]1=O`, the TGI with ACHN renal is 2.03 µM; in the experiment on HCT-15 colon, 2.76 µM; in the experiment on K-562 leukemia, 6.09 µM; in the experiment on MCF7 breast it was 1.24 µM; with MDA-MB-435, 3.08 µM; in the experiment on NCI-H460 lung, 4.53 µM. For the same compound, the TGI in the experiment with OVCAR-8 ovarian was determined as 20.9 µM; in the experiment with SK-MEL-2 melanoma, 7.7 µM; with UACC-257 melanoma, 1.97 µM; in the experiment with UACC-62 melanoma, 8.28 µM.

In the case of `Cn1c(-c2ccc[se]2)ccc1-c1ccc(CO)[se]1`, the TGI in the experiment on ACHN renal is > 71.5 µM; with HCT-15 colon, > 63.8 µM; with K-562 leukemia it was > 100 µM; with MCF7 breast, > 100 µM; in the experiment with MDA-MB-435, > 67.7 µM; in the experiment with NCI-H460 lung, 18.8 µM. For the same compound, the TGI was > 100 µM with OVCAR-8 ovarian, > 100 µM with SK-MEL-2 melanoma, 0.102 µM in the experiment with UACC-257 melanoma and > 100 µM with UACC-62 melanoma.

In the case of `COC(=O)/C=C\C(C#N)(C#N)N=Cc1ccc(C)s1`, the TGI in the experiment on ACHN renal was 3.66 µM; in the experiment with HCT-15 colon, 3.66 µM; in the experiment with K-562 leukemia it was > 100 µM; in the experiment on MCF7 breast it was 4.05 µM; with MDA-MB-435 it was 7.65 µM; with NCI-H460 lung it was 40.7 µM. Besides, the TGI was 9.97 µM in the experiment with OVCAR-8 ovarian, 20.5 µM with SK-MEL-2 melanoma, 7.71 µM in the experiment on UACC-257 melanoma and 31 µM in the experiment with UACC-62 melanoma.

Take `CC1CC[C@@]2(OC1)O[C@H]1C[C@H]3[C@@H]4CC[C@H]5C[C@@H](OC6OC(CO)C(OC7OC(CO)C(OC8OC(CO)C(O)C(OC9OC(C)C(OC%10OC(C)C(O)C(O)C%10O)C(O)C9O)C8OC8OCC(O)C(O)C8O)C(O)C7O)C(O)C6O)CC[C@]5(C)[C@H]4CC(=O)[C@]3(C)[C@H]1[C@@H]2C` (stereo not given in full): the TGI with ACHN renal is 30.9 µM; in the experiment on HCT-15 colon, 35.2 µM; in the experiment with K-562 leukemia, 32.7 µM; with MCF7 breast, 31.8 µM; in the experiment on MDA-MB-435, 35.7 µM; with NCI-H460 lung, 32.9 µM. The TGI in the experiment with OVCAR-8 ovarian came out at 38.4 µM; in the experiment on SK-MEL-2 melanoma it was 30 µM; in the experiment with UACC-257 melanoma, 32.3 µM; with UACC-62 melanoma it was 32.8 µM.

Turning to `COc1ccc(/C=C2\CC3C4CC=C5C[C@@H](O)CC[C@]5(C)C4CC[C@]3(C)\C2=N\O)cc1OC` (stereo not given in full), the TGI in the experiment with ACHN renal was 36.9 µM; in the experiment with HCT-15 colon, > 100 µM; with K-562 leukemia it was > 100 µM; in the experiment with MCF7 breast, > 100 µM; with MDA-MB-435, > 100 µM; in the experiment on NCI-H460 lung it was > 100 µM. Further, the TGI is > 100 µM in the experiment on OVCAR-8 ovarian, 42.3 µM in the experiment on SK-MEL-2 melanoma, > 100 µM with UACC-257 melanoma and 25.6 µM in the experiment with UACC-62 melanoma.
